Like-named read-outs stand apart in the source and are kept apart here. Marks after values point to notes of the source that are not given here.
Experiments:
CYP3A4 [1] = target: T1, CYP3A4 (Homo sapiens, UniProt P08684)
[2] = cited from earlier work; for decrease in AUCtau with concomitant CBD / decrease in C max with concomitant CBD: patients with epilepsy on stable VPA
[3] = healthy volunteers, cited from earlier work; for increase in AUCtau with concomitant CBD / increase in C max with concomitant CBD: steady-state ASD
[4] = patients with epilepsy on stable CLB; result in words; cited from earlier work
CYP3A4 [5] = target: T1, CYP3A4; assay: clinical; conditions: in vivo
[6] = trial 17074; after CBD alone, during RIF treatment, or after CBD and RIF; of 16
CYP2C19 = CYP2C19 (Homo sapiens, UniProt P33261); conditions: result in words; cited from earlier work
CYP2C19, sequence (P33261 whole entry): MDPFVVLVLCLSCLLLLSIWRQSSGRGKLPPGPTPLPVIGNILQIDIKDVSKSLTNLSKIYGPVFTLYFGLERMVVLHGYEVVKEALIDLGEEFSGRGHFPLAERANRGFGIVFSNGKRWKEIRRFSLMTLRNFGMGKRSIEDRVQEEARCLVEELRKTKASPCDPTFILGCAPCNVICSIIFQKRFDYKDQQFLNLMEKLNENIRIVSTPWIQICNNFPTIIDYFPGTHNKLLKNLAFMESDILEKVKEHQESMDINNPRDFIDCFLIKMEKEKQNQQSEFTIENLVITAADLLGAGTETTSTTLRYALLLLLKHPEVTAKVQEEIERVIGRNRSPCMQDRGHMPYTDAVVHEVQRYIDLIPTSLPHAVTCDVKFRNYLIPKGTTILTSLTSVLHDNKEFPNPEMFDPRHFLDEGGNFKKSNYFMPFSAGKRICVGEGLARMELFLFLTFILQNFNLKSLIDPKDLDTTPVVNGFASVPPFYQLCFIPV

CYP3A4 [7] = target: T1, CYP3A4; conditions: result in words; cited from earlier work
[8] = cited from earlier work

T1 sequence (P08684 whole entry): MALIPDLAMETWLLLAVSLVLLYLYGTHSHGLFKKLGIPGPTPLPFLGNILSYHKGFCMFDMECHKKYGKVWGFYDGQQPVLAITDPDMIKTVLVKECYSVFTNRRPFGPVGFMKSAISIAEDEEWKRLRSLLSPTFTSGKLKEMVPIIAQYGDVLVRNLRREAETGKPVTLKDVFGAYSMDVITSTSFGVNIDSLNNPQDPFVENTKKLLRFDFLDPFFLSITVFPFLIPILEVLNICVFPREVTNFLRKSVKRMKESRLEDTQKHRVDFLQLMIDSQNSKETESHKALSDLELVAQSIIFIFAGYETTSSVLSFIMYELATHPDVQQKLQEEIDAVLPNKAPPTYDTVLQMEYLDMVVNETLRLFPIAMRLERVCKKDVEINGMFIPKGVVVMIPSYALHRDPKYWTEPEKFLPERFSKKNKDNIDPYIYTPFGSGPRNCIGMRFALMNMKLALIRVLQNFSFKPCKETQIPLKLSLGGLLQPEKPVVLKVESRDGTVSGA

## OCc1ncc2n1-c1ccc(Cl)cc1C(c1ccccc1F)=NC2 [1′‐OH‐MDZ, 1′‐hydroxymidazolam]
CYP3A4 [1]; MDZ + CBD (steady-state CBD 750 mg BID), median (min‐max)
  t max: 3.00 (0.50‐5.02) ^e h
CYP3A4 [1]; MDZ + placebo, MDZ 2.5 mg single dose, arithmetic mean (CV%)
  t ½: 6.11 (39.0) h
CYP3A4 [1]; MDZ + placebo, median (min‐max)
  t max: 0.50 (0.48‐1.55) ^d h
CYP3A4 [1]; steady-state CBD
  increase in AUCtau with concomitant CBD: 68%
  increase in C max with concomitant CBD: 12%
  increase in t ½ with concomitant CBD: 35%
CYP3A4 [1]; with concomitant CBD, 90% CI = 1.00‐2.52
  delay to t max, median of differences: 2.25 h

## C=CCC(CCC)C(=O)O (stereo not shown) [4‐ene‐VPA, 2‐propyl‐4‐pentenoic acid]
[2]
  decrease in AUCtau with concomitant CBD: 30%
  decrease in C max with concomitant CBD: 23%

## CN1C(=O)CC(=O)N(c2ccccc2)c2cc(Cl)ccc21 [CLB, clobazam]
[3]
  increase in AUCtau with concomitant CBD: 21%
  increase in C max with concomitant CBD: 20%
[4]
  effect of concomitant CBD on exposure: no effect

## Cc1ncc2n1-c1ccc(Cl)cc1C(c1ccccc1F)=NC2 [MDZ, midazolam]
CYP3A4 [1]; human, in vivo
  t max: 1.00 (0.5‐3.00) h
  t ½: 4.53 (14.5) h
CYP3A4 [5]; t max
  t max: 0.5 h
CYP3A4 [5]; t ½
  half-life: 4.99 h

## CO[C@H]1/C=C/O[C@@]2(C)Oc3c(C)c(O)c4c(O)c(c(/C=N/N5CCN(C)CC5)c(O)c4c3C2=O)NC(=O)/C(C)=C\C=C\[C@H](C)[C@H](O)[C@@H](C)[C@@H](O)[C@@H](C)[C@H](OC(C)=O)[C@@H]1C [RIF, rifampicin]
[6]
  healthy volunteers reporting AEs: 81%

## CC(C)(C)C(O)/C=C/c1ccc2c(c1)OCO2 (stereo not shown) [STP, stiripentol]
[2]; patients with epilepsy
  increase in AUCtau with concomitant CBD: 30%
  increase in C max with concomitant CBD: 17%
CYP2C19
  inhibition of CYP2C19: potent inhibitor
CYP3A4 [7]
  inhibition of CYP3A4: potent inhibitor
[8]
  Plasma protein binding (PPB): 96.1%
[3]
  increase in AUCtau with concomitant CBD: 55%
  increase in C max with concomitant CBD: 28%

## CCCC(CCC)C(=O)O [VPA, valproate]
[2]
  decrease in AUCtau with concomitant CBD: 17%
  decrease in C max with concomitant CBD: 13%
[8]; result in words
  PPB when VPA and CBD are combined in vitro: not affected
[3]; result in words
  effect of concomitant CBD on exposure: no effect

Reference: paper PMC7693203 (Epilepsia, 2020)
